Laboratory results reported in article PMC10042772 (Targeted Oncology, 2023).

Columns and labels:
[1] = tested on: MDA-MB-453 cells; test: CellTiter-Glo 2.0 viability assay, 10 days; format: cell-based, human; details: MDA-MB-453, 10 days of continuous exposure
[2] = tested on: CBP/p300 over BRD4; details: selective CBP/p300 binder; cited from earlier work
[3] = cited from earlier work

CNC(=O)c1ccc(N2C(=S)N(c3ccc(C#N)c(C(F)(F)F)c3)C(=O)C2(C)C)cc1F [Enzalutamide, enzalutamide]
times less active than FT-6876 at inhibiting proliferation [1]: 45 times

COc1ccc(CCc2nc3cc(-c4c(C)noc4C)ccc3n2C[C@H](C)N2CCOCC2)cc1Cl [SGC-CBP30]
selectivity over BRD4 and other BRD and BET family members [2]: 40 fold
microsomal stability [3]: poor microsomal stability
